# Laboratory results taken from patent publication US20080161232A1, “C5a Receptor Antagonist” (JERINI AG, priority 2005, published 2008).
# pEC50, pIC50: −log10 of the molar value. Like-named read-outs stand apart in the source and are kept apart here. Starred links: 1 amine or outer side, 2 acyl side, 3 side chain; linkers in the order of their positions; H or OH if unused. Positions of bridges follow the written chain, without caps; N, C: chain ends. Non-standard residues stand in square brackets, D forms with d. Residues, ends and D or L forms follow the SMILES beside them. X1 = COC1O[C@H](C(=O)[*:2])[C@@H](O)[C@H](O)[C@H]1N[*:1]; Orn(2-imidazolinyl) = N[C@@H](CCCNC1=NCCN1)C(=O)O; Dip = N[C@H](C(=O)O)C(c1ccccc1)c1ccccc1; Bta = N[C@@H](Cc1csc2ccccc12)C(=O)O; 2Thi = N[C@@H](Cc1cccs1)C(=O)O; dCha = N[C@H](CC1CCCCC1)C(=O)O; Pip = O=C(O)[C@@H]1CCCCN1; Nle = CCCC[C@H](N)C(=O)O; Orn = NCCC[C@H](N)C(=O)O; Aze = O=C(O)[C@@H]1CCN1
# Legend:
# [1] = Solubility determination for selected C5aR-antagonists; format: physicochemical; details: for Solubility in 20 mM HEPES pH 7.4 (% of 200 μM): 20 mM HEPES pH 7.4, 24 h at RT
# Protocol: Solubility Determination for Selected C5aR-Antagonists
# […] The undissolved part was removed by centrifugation after 24 h. The UV-absorption of the supernatant was measured and compared to a reference solution of the compound in 60% MeOH.
# human C5aR(CD88) [2] = target: T1, human C5aR(CD88) (Homo sapiens, UniProt P21730); assay: Determination of EC50-values in an enzyme release assay (agonistic activity); format: cell-based; details: for pEC50: agonistic activity, no C5a added, read-out: EC50; for agonistic activity (in words): cellular assay, up to a concentration of at least 1430 nM
# T1 construct: expressed in transfected cells; host or cells: rat basophilic leukemia cells (RBL)
# T1 sequence (P21730 1-350): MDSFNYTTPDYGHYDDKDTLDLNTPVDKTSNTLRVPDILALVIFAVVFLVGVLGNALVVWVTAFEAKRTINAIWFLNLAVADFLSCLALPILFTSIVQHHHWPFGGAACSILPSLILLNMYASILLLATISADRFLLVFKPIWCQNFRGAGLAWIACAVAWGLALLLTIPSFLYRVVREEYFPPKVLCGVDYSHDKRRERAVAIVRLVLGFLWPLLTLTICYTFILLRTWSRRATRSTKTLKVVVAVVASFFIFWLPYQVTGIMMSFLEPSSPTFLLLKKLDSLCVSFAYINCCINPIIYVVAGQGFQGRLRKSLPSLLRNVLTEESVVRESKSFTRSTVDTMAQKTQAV
# Protocol: The assay procedure was described by Kohl (Kohl 1997 The Anaphylatoxins. In: Dodds, A. W., Sim, R. B. (Eds.), Complement: A Practical Approach. Oxford, pp. 135-163). Basophilic leukemia cells from rats (RBL), which express the human C5aR(CD88), were cultivated in DMEM with 10% fetal bovine serum, 100 U/ml penicillin, 100 μg/ml streptomycin and 2 mM glutamine (all components of the media from Biochrome, Berlin) to confluence at 37° C. and 10% CO2. The following specifications refer to single cell culture flask having a surface of 75 cm^2. Medium was decanted from cells. Cells were washed with 10 ml PBS (Dulbecco's PBS, Biochrome) and subsequently overlayed with 3 ml Cell Dissociation Solution (CDS, Sigma). Cells were incubated for 1 min at room temperature. Subsequently, CDS was removed and the cells were further incubated for 10-15 min at 37° C. for dissociation. In the assay, 20 μl of the solution containing the compound to be tested were used. This solution should not contain more than 2.8% DMSO. For the dilution process, the compounds were diluted in ⅓ or ½ steps. To 20 μl compound solution 75 μl of the RBL-cells were added, which were treated as follows: after dissociation cells were detached and warmed at 37° C. in 10 ml HAG-CM (20 mM HEPES; 125 mM NaCl, 5 mM KCl, 1 mM CaCl2, 1 mM MgCl2, 0,5 mM Glucose, 0,25% BSA. HEPES-preparation: 2.3 g/l HEPES-salt +2.66 g/l HEPES acid). Cells were counted and centrifuged (200×g, 10 min). The cell pellet was resuspended in preheated HAG-CM (i.e. Hepes-buffer NaCl-glucose-solution with calcium and magnesium), and the cell density was adjusted to 2×10^6 cells/ml. The cells were incubated at 37° C. for 5 min. Per ml cell suspension 27 μl of a cytochalasin B-solution were added (100 μg/ml in DMSO, Sigma). The cells were incubated for further 3 min at 37° C. 75 μl of the cell suspension were added to 20 μl compound solution leading to a volume of 95 μl per well. After incubation of the cells for 10 min at 37° C. 10 μl hrC5a (10.5 nM in HAG-CM, Sigma) per well were added. The cells were incubated for additional 5 min at 37° C. The mtp was then transferred to ice and centrifuged for 3 min at 4° C. with 1200×g. 75 μl of the supernatant were added to 100 μl substrate-solution (2.7 mg/ml p-nitrophenyl-N-acetyl-β-D-glucosaminide (Sigma) in 42.5 mM Na-acetate pH 4.5). The mtp was incubated for further 60 min at 37° C. 75 μl 0.4 M glycine pH 10.4 were added per well. The mtp was transferred into a reader and the absorption at 405 nm was measured. IC50-values were obtained following the equation; y=((A-D)/(1+(x/C)^B))+D.
# Determination of EC50-Values in an Enzyme Release Assay
# The determination of EC50-values was performed according to the procedure given in example II, with the exception that 30 μl of the test compound need to be mixed with 75 μl of the cell suspension mentioned in example 11. Neither preincubation nor addition of C5a for stimulation of enzyme release is needed.
# human C5aR(CD88) [3] = target: T1, human C5aR(CD88); assay: Determination of the IC50 value in an enzyme release assay (functional assay, antagonistic activity); format: cell-based; details: for pIC50: antagonistic activity, IC50 group in enzyme release assay, RBL cells expressing human C5aR(CD88), read-out: activity (group); for inhibitory activity (in words): functional assay of example 11, noteworthy = IC50 less than 200 nM
# C5aR = target: T2, C5aR (Homo sapiens, UniProt P21730); details: PMN membranes, cited from earlier work
# T2 construct: measurements with isolated membranes from polymorphonuclear neutrophilic granulocytes (PMN membranes); host or cells: isolated PMN membranes (endogenous receptor)
# T2 sequence (P21730 1-350): T1 sequence (P21730 1-350)
# [4] = examples of WO 90/09162, read-out: IC50 (binding), WO 90/09162
# [5] = examples of WO 92/12168, read-out: IC50 (binding to C5aR), WO 92/12168
Molecule,Solubility in 20 mM HEPES pH 7.4 (% of 200 μM) [1],pEC50 (human C5aR(CD88) [2]),pIC50 (human C5aR(CD88) [3]),agonistic activity (in words) (human C5aR(CD88) [2]),other results
"CC(=O)N[C@@H](Cc1ccccc1)C(=O)N[C@H]1CCCNC(=O)[C@H](CCCNC(=N)N)NC(=O)[C@H](Cc2c[nH]c3ccccc23)NC(=O)[C@@H](CC2CCCCC2)NC(=O)[C@@H]2CCCN2C1=O [Compound 40, Ac-Phe-[Orn-Pro-cha-Trp-Arg], reference compound]",94 % of 200 μM,,,,solubility in aqueous HEPES buffer (pH 7.4) [1]: 94%
"CC(=O)N[C@@H](Cc1ccccc1)C(=O)N[C@@H](CCCN)C(=O)N1CCC[C@H]1C(=O)N[C@H](CC1CCCCC1)C(=O)N[C@@H](Cc1csc2ccccc12)C(=O)N[C@@H](Cc1ccccc1)C(N)=O [Compound 62, Ac-Phe-Orn-Pro-cha-Bta-Phe-NH2] (Ac-F[Orn]P[dCha][Bta]F-NH2)",,< 4.00,7.30 to 7.70,pure antagonists,
"CC(=O)N[C@@H](Cc1ccccc1)C(=O)N[C@@H](CCCN)C(=O)N1CC[C@H]1C(=O)N[C@H](CC1CCCCC1)C(=O)N[C@@H](Cc1c[nH]c2ccccc12)C(=O)N[C@@H](Cc1ccccc1)C(N)=O [Compound 83, Ac-Phe-Orn-Aze-cha-Trp-Phe-NH2] (Ac-F[Orn][Aze][dCha]WF-NH2)",,< 4.00,7.30 to 7.70,pure antagonists,
"CC(=O)N[C@@H](Cc1ccccc1)C(=O)N[C@@H](CCCNC1=NCCN1)C(=O)N1CCC[C@H]1C(=O)N[C@H](CC1CCCCC1)C(=O)N[C@@H](Cc1csc2ccccc12)C(=O)N[C@@H](Cc1ccccc1)C(N)=O [Compound 150, Ac-Phe-Arg(CH2—CH2)-Pro-cha-Bta-Phe-NH2] (Ac-F[Orn(2-imidazolinyl)]P[dCha][Bta]F-NH2)",,,8.00 to 8.30,pure antagonists,inhibitory activity (in words) (human C5aR(CD88) [3]): noteworthy inhibitory activity
(N-Ethyl)Phe-Lys-Ala-Cha-Ala-Leu-N-Methyl(D)ala-Arg-OH,,,,,pIC50 (C5aR; [4]): 7.96
(N-Methyl)Phe-Lys-Pro-cha-Phe-Phenylbutanoyl,,,,,pIC50 (C5aR; [5]): 5.59
(N-Methyl)Phe-Lys-Pro-cha-ψ55 CH2—N(CH2CH2C6H5)}-Arg-OH,,,,,pIC50 (C5aR; [5]): 6.44
Ac-Phe-Lys-Ala-Cha-Ala-Leu-N-Methyl(D)ala-Arg-OH,,,,,pIC50 (C5aR; [4]): 7.92

# The next lines start with results.
Solubility in 20 mM HEPES pH 7.4 (% of 200 μM) [1],pEC50 (human C5aR(CD88) [2]),pIC50 (human C5aR(CD88) [3]),agonistic activity (in words) (human C5aR(CD88) [2]),Molecule,other results
84 % of 200 μM,,,,"CCCC[C@@H]1NC(=O)[C@H](Cc2c[nH]c3ccccc23)NC(=O)[C@@H](CC2CCCCC2)NC(=O)[C@@H]2CCCN2C(=O)[C@@H](NC(=O)[C@H](Cc2ccccc2)NC(=O)[C@H]2OC(OC)[C@H](NC(C)=O)[C@@H](O)[C@@H]2O)CCCNC1=O (stereo partly drawn) [Compound 4, X-Phe-[Orn-Pro-cha-Trp-Nle]; X = 2-acetamido-1-methyl-glucuronyl] (Ac-[X1]F[Orn]P[dCha]W[Nle]; lactam 3-C)",solubility in aqueous HEPES buffer (pH 7.4) [1]: 84%
22 % of 200 μM,< 5.84,7.30 to 7.70,,"CCCC[C@@H]1NC(=O)[C@H](Cc2c[nH]c3ccccc23)NC(=O)[C@@H](CC2CCCCC2)NC(=O)[C@@H]2CCCN2C(=O)[C@@H](NC(=O)[C@H](Cc2ccccc2)NC(C)=O)CCCNC1=O [Compound 28, Ac-Phe-[Orn-Pro-cha-Trp-Nle]] (Ac-F[Orn]P[dCha]W[Nle]; lactam 2-C)",solubility in aqueous HEPES buffer (pH 7.4) [1]: 22%; inhibitory activity (in words) (human C5aR(CD88) [3]): without significant loss of activity; inhibitory activity (in words) (human C5aR(CD88) [3]; listed as Ac-Phe-[Orn-Pro-cha-Trp-Nle]): noteworthy inhibitory activity
45 % of 200 μM,< 5.84,7.70 to 8.00,pure antagonists,"CCCC[C@@H]1NC(=O)[C@H](Cc2c[nH]c3ccccc23)NC(=O)[C@@H](CC2CCCCC2)NC(=O)[C@@H]2CCCN2C(=O)[C@@H](NC(=O)[C@@H](N)Cc2ccccc2)CCCNC1=O [Compound 42, H-Phe-[Orn-Pro-cha-Trp-Nle]] (H-F[Orn]P[dCha]W[Nle]; lactam 2-C)",inhibitory activity (in words) (human C5aR(CD88) [3]): noteworthy inhibitory activity
93 % of 200 μM,,,pure antagonists,"CCCC[C@@H]1NC(=O)[C@H](Cc2c[nH]c3ccccc23)NC(=O)[C@@H](CC2CCCCC2)NC(=O)[C@@H]2CCCN2C(=O)[C@@H](NC(=O)[C@H](Cc2ccccc2)NC(=O)[C@H](CCCCN)NC(C)=O)CCCNC1=O [Compound 43, Ac-Lys-Phe-[Orn-Pro-cha-Trp-Nle]] (Ac-KF[Orn]P[dCha]W[Nle]; lactam 3-C)",inhibitory activity (in words) (human C5aR(CD88) [3]): noteworthy inhibitory activity
,< 4.00,7.30 to 7.70,pure antagonists,"CC(=O)N[C@@H](Cc1cccs1)C(=O)N[C@@H](CCCN)C(=O)N1CCCC[C@H]1C(=O)N[C@H](CC1CCCCC1)C(=O)N[C@@H](Cc1csc2ccccc12)C(=O)N[C@@H](Cc1ccccc1)C(N)=O [Compound 67, Ac-Thi-Orn-Pip-cha-Bta-Phe-NH2] (Ac-[2Thi][Orn][Pip][dCha][Bta]F-NH2)",
,< 4.00,5.70 to 6.70,pure antagonists,"CC(=O)N[C@H](C(=O)N[C@@H](CCCN)C(=O)N1CCC[C@H]1C(=O)N[C@H](CC1CCCCC1)C(=O)N[C@@H](Cc1c[nH]c2ccccc12)C(=O)N[C@@H](Cc1ccccc1)C(N)=O)C(c1ccccc1)c1ccccc1 [Compound 71, Ac-Ebw-Orn-Pro-cha-Trp-Phe-NH2] (Ac-[Dip][Orn]P[dCha]WF-NH2)",
,< 4.00,6.70 to 7.30,pure antagonists,"CC(=O)N[C@@H](Cc1ccccc1)C(=O)N[C@@H](Cc1c[nH]c2ccccc12)C(=O)N1CCC[C@H]1C(=O)N[C@H](CC1CCCCC1)C(=O)N[C@@H](Cc1c[nH]c2ccccc12)C(=O)N[C@@H](Cc1ccccc1)C(N)=O [Compound 84, Ac-Phe-Trp-Pro-cha-Trp-Phe-NH2] (Ac-FWP[dCha]WF-NH2)",
,< 4.00,7.30 to 7.70,pure antagonists,"CC(=O)N[C@@H](Cc1ccccc1)C(=O)N[C@@H](CCCNC(=N)N)C(=O)N1CCC[C@H]1C(=O)N[C@H](CC1CCCCC1)C(=O)N[C@@H](Cc1c[nH]c2ccccc12)C(=O)N[C@@H](Cc1ccccc1)C(N)=O [Compound 88, Ac-Phe-Arg-Pro-cha-Trp-Phe-NH2] (Ac-FRP[dCha]WF-NH2)",
